In US12023421B2, “Medical devices for continuous delivery of therapeutic agents” (Adenopaint LLC, priority 2019, dated 2024):
In brackets after ≈: the same amount, converted by molar mass. Each block holds one compound with its values, some of them ahead of it.

Key:
Yucatan mini-pigs = experiment: Acetylcholine-induced coronary vasoconstriction (no-reflow) in the pig (Example 6, second protocol); format: in vivo; conditions: 0.3 to 1.0 mg/min infused into the LAD for 20 to 30 min; preliminary studies
Protocol: Animal Studies: All porcine studies were approved by Institutional Animal Care and the Committee of Synchrony Labs LLC, NC. Yucatan mini pigs (25 to 30 Kg) were premeditated with Telazol (5 mg/Kg). Anesthesia was maintained with 1% isoflurane and supplemental oxygen to maintain a pH of 7.4±0.6. Animals received aspirin 300 mg orally for three days prior to the study and were anticoagulated throughout the procedure with heparin (150 units/kg) to maintain ACT greater than 300. Heart rate, EKG changes and blood pressure were monitored continuously utilizing leads I, AVF and AVL with a 6 F sheath in the left femoral artery. […] Coronary blood flow velocity (CFV) was measured utilizing a 0.014-inch Doppler flowwire (Combowire, Volcano Corporation, Rancho Cordova, CA, USA) and dedicated software. CFV was measured as a continuous average pulse wave velocity over 4 seconds and mean values were recorded every 60 seconds.
In the second protocol the ability of the wire to prevent and reverse intense vasoconstriction induced by intracoronary administration of acetylcholine (Ach) was evaluated. […] In other experiments, we evaluated whether an adenosine-releasing wire could prevent the NRF by placing the adenosine-loaded wire initially into the LAD. […]
For statistical analyses, data are expressed as mean±SEM. […]

[1] = Particle size stability of jet-milled adenosine in hydrogel (laser diffraction and optical microscopy); format: physicochemical; conditions: after one week in the hydrogel; particles less than 5 microns
Protocol: Next, the inner drug layer was prepared. In this regard, a 20% w/w solution of PVA/PVP (99:1 mass ratio) in DI water was prepared and autoclaved for 1 hr while stirring. This yielded a supersaturated solution which was homogeneous and free of bubbles. Using a water bath, the temperature of the PVA/PVP solution was maintained at 65° C. In order to create a sufficient drug load on the wire, a 25% concentration of adenosine was used in the drug layer. Adenosine has poor solubility in water ([…]) and commercial adenosine has a mean particle size of 55 microns which would have compromised the lubricity of the wire. Utilizing a two-pass jet-milling process, the solid phase adenosine particles were reduced in size to less than 5 microns. Micronized adenosine was mixed in DI water, sonicated for 15 min and then added to the PVA/PVP mixture and the PVA/PVP/adenosine mixture was stirred until a homogeneous solution was obtained. […] Next, the guidewire coated with the PEG-silanol primer was coated with the adenosine-containing hydrogel. Multiple hydroxyl groups in the hydrogel form hydrogen bonds with multiple ether oxygens in the primer, thus creating an extensive network of hydrogen bonds between the drug-containing hydrogel layer and the primer layer (FIG. 14, Reaction 4).

[2] = In vitro release studies in 0.9% saline at 37° C. (Example 6); format: physicochemical
Protocol: In vitro release studies were performed in 0.9% saline rather than in plasma or blood because adenosine has a short half-life (seconds) in the latter two media making detection difficult. Tubes containing 15 ml saline were maintained at 37° C. and 10 cm of the spaced coiled section of the guidewire was placed serially in tubes for 0 to 5, 5 to 10, 10 to 20, 20 to 30, 30 to 40, 40 to 50, and 50 to 60 minutes. One ml samples were then taken from the tube to measure the concentration of adenosine by spectrophotometry (Jackson E K, Mi Z, Koehler M T, Carcillo J A Jr, Herzer W A. Injured erythrocytes release adenosine deaminase into the circulation. J Pharmacol Exp Ther 1996; 279: 1250-60).

coronary flow velocity = conditions: continuous infusion into the LAD at 50 μg/kg/min; previous studies; cited from earlier work
[3] = cited from earlier work
[4] = In vitro drug elution from coated guidewires in phosphate-buffered saline at 37° C. (UV 260 nm); format: physicochemical
Protocol: FIG. 4 illustrates representative time release of a therapeutic agent, adenosine, from the distal 10 cm of three guidewires with two coats of PVA/PVP polymer cured with 2 freeze/thaw cycles. The inner therapeutic coat was a 7.5% (w/w) of PVA/PVP with 1.5 mg of adenosine added as described in the application. The outer barrier layer was made of 10.0% (w/w) of PVA/PVP. The guidewire was placed in a beaker containing phosphate-buffered saline at 37° C. that was constantly stirred with a magnetic device. Samples were taken periodically from the beaker and analyzed for adenosine amount by UV spectrophotometry (absorption at 260 nm). Note the complete elution of the drug in a curvilinear fashion over 60 minutes.
Note that elution was more rapid with greater than 90% eluted over 20 minutes.
FIG. 6 illustrates a representative example of an extremely rapid elution of another drug diltiazem utilizing a polymer with a ratio of PVA/PVAC and two freeze/thaw cycles. The drug was completely eluted over 10 minutes.
Utilizing the same protocol as Example 1, the freeze/thaw cycles were increased to 3-8 and the barrier concentration was increased to 15.0% (w/w). Utilizing adenosine as the prototype therapeutic agent the elution profile was increased with the majority of drug elution occurring in 30 min.

[5] = in plasma or blood; cited from earlier work

SMILES: CC(=O)OCC[N+](C)(C)C [Ach, acetylcholine]
- reduction in CBFV (Yucatan mini-pigs): ~80%

- particle size stability in the hydrogel [1]: stable
- time by which most of the remainder was released ([2]; Example 6 guidewires): ≤ 40 min
- total amount of released adenosine ([2]; Example 6 guidewires (PVA/PVP drug layer, PVA/PVAc 1:3 barrier), over 60 min): 2.7±0.2 mg/10 cm length of wire
- adenosine released in the first 20 min ([2]; Example 6 guidewires, relative to 60-min timepoint): approximately 60%
- time in which the majority of drug elution occurred ([4]; Example 2, protocol of Example 1 with 3-8 freeze/thaw cycles and barrier concentration 15.0% (w/w)): 30 min
- time of complete elution of the drug from guidewire ([4]; FIG. 4, distal 10 cm of guidewires, inner coat 7.5% (w/w) PVA/PVP with 1.5 mg adenosine, outer barrier 10.0% (w/w) PVA/PVP, 2 freeze/thaw cycles, curvilinear): 60 min
- drug eluted over 20 minutes ([4]; FIG. 5, 8 freeze/thaw cycles, polymer 10% inner and 15% outer layer): greater than 90%
SMILES: Nc1ncnc2c1ncn2[C@@H]1O[C@H](CO)[C@@H](O)[C@H]1O [adenosine, Adenosine]
- increase in CFV (coronary flow velocity): approximately 250%
- solubility in water [3]: 80 mg/mL (≈ 299 mM)
- release profile ([4]; FIG. 7, guidewires coated with polymer mixture of 3:1 and 1:1 ratios of PVAC to PVA): optimal for a typical coronary interventional procedure
- half-life [5]: seconds

- time of complete elution of the drug from guidewire ([4]; FIG. 6, polymer with a ratio of PVA/PVAC, two freeze/thaw cycles): 10 min
SMILES: COc1ccc([C@@H]2Sc3ccccc3N(CCN(C)C)C(=O)[C@@H]2OC(C)=O)cc1 [diltiazem]
